In ChEMBL document CHEMBL1201862, “PubChem BioAssay data set” (2004):
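Each compound was tested at five concentrations against cells in 96-well plates for 48 hours. GI50: concentration for 50% inhibition of growth.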 Active and inactive are the calls of the source. No stated cut-off is given here; in the data, active = GI50 up to about 1.1 µM and inactive = higher.

Tests used:
Assay in all cases: DTP human tumour cell line panel, 48 h
HT-29 = system: HT-29
HL-60 = system: HL-60
DMS-273 = system: DMS-273
RPMI-8226 = system: RPMI-8226
OVCAR-4 = system: OVCAR-4
Hs-578T = system: Hs-578T
A498 = system: A498
SK-MEL-5 = system: SK-MEL-5
OVCAR-5 = system: OVCAR-5
OVCAR-8 = system: OVCAR-8
SF-268 = system: SF-268
NCI-H460 = system: NCI-H460
M14 = system: M14
TK-10 = system: TK-10
EKVX = system: EKVX
SK-MEL-2 = system: SK-MEL-2
SK-MEL-28 = system: SK-MEL-28
HCC 2998 = system: HCC 2998
SF-295 = system: SF-295
NCI-H522 = system: NCI-H522
HOP-62 = system: HOP-62
DLD-1 = system: DLD-1
UACC-257 = system: UACC-257
ACHN = system: ACHN
SR = system: SR
SK-OV-3 = system: SK-OV-3
BT-549 = system: BT-549
SW-620 = system: SW-620
HCT-15 = system: HCT-15
LXFL 529 = system: LXFL 529
MCF7 = system: MCF7
M19-MEL = system: M19-MEL
UACC-62 = system: UACC-62
COLO 205 = system: COLO 205
U-251 = system: U-251
NCI/ADR-RES = system: NCI/ADR-RES
CAKI-1 = system: CAKI-1
Malme-3M = system: Malme-3M
HCT-116 = system: HCT-116
SN12C = system: SN12C
OVCAR-3 = system: OVCAR-3
SNB-75 = system: SNB-75
UO-31 = system: UO-31
MDA-MB-231 = system: MDA-MB-231
IGROV-1 = system: IGROV-1
LOX IMVI = system: LOX IMVI
SNB-78 = system: SNB-78
SNB-19 = system: SNB-19
MDA-N = system: MDA-N
A549 = system: A549
SF-539 = system: SF-539
HOP-92 = system: HOP-92
NCI-H226 = system: NCI-H226
DMS-114 = system: DMS-114
KM-20L2 = system: KM-20L2
MDA-MB-435 = system: MDA-MB-435
DU-145 = system: DU-145
KM12 = system: KM12
NCI-H23 = system: NCI-H23
CCRF-CEM = system: CCRF-CEM
RXF 393 = system: RXF 393
MOLT-4 = system: MOLT-4
HOP-18 = system: HOP-18
786-0 = system: 786-0
K562 = system: K562
RXF 631 = system: RXF 631
PC-3 = system: PC-3

In the case of COc1ccc(/C=C\c2cc(OC)c(OC)c(OC)c2)cc1OCC(=O)O, the GI50 (HT-29) is reported as > 100 µM (inactive), the GI50 (HL-60) is reported as 2.84 µM (inactive) and the GI50 (DMS-273) is reported as 6.22 µM (inactive). The GI50 (RPMI-8226) was 4.84 µM (inactive), the GI50 (OVCAR-4) was 20.7 µM (inactive) and the GI50 (Hs-578T) was 2.93 µM (inactive). The GI50 (A498) was 31.1 µM (inactive), the GI50 (SK-MEL-5) was 4.45 µM (inactive) and the GI50 (OVCAR-5) was > 100 µM (inactive). The GI50 (OVCAR-8) was 5.64 µM (inactive), the GI50 (SF-268) was 10.9 µM (inactive) and the GI50 (NCI-H460) was 4.43 µM (inactive). For the same compound, the GI50 (M14) was 3.79 µM (inactive), the GI50 (TK-10) was > 97.3 µM (inactive) and the GI50 (EKVX) was > 96.8 µM (inactive). For the same compound, the GI50 (SK-MEL-2) was 6.68 µM (inactive), the GI50 (SK-MEL-28) was 6.61 µM (inactive) and the GI50 (HCC 2998) was 88.9 µM (inactive). The GI50 (SF-295) was 12.7 µM (inactive), the GI50 (NCI-H522) was 3.36 µM (inactive) and the GI50 (HOP-62) was 8.36 µM (inactive). The GI50 (DLD-1) was 7.45 µM (inactive), the GI50 (UACC-257) was 5.61 µM (inactive) and the GI50 (ACHN) was 10.2 µM (inactive). The GI50 (SR) was 3.89 µM (inactive), the GI50 (SK-OV-3) was 29 µM (inactive) and the GI50 (BT-549) was 13.5 µM (inactive). The GI50 (SW-620) was 3.78 µM (inactive), the GI50 (HCT-15) was 9.62 µM and the GI50 (LXFL 529) was 6.55 µM (inactive). For the same compound, the GI50 (MCF7) was 36.6 µM (inactive), the GI50 (M19-MEL) was 4.55 µM (inactive) and the GI50 (UACC-62) was 4.99 µM (inactive). For the same compound, the GI50 (COLO 205) was > 100 µM (inactive), the GI50 (U-251) was 5.96 µM (inactive) and the GI50 (NCI/ADR-RES) was 2.21 µM (inactive). For the same compound, the GI50 (CAKI-1) was 48.2 µM (inactive), the GI50 (Malme-3M) was 4.78 µM (inactive) and the GI50 (HCT-116) was 3.46 µM (inactive). The GI50 (SN12C) was 9.18 µM (inactive), the GI50 (OVCAR-3) was 2.69 µM (inactive) and the GI50 (SNB-75) was 5.15 µM (inactive). For the same compound, the GI50 (UO-31) was 7.13 µM (inactive), the GI50 (MDA-MB-231) was 18 µM (inactive) and the GI50 (IGROV-1) was 46.8 µM (inactive). For the same compound, the GI50 (LOX IMVI) was 12.2 µM (inactive), the GI50 (SNB-78) was 4.17 µM (inactive) and the GI50 (SNB-19) was 4.18 µM (inactive). For the same compound, the GI50 (MDA-N) was 2.15 µM (inactive), the GI50 (A549) was 24.8 µM (inactive) and the GI50 (SF-539) was 3.64 µM (inactive). For the same compound, the GI50 (HOP-92) was 9.89 µM (inactive), the GI50 (NCI-H226) was 15.1 µM (inactive) and the GI50 (DMS-114) was 4.16 µM (inactive). For the same compound, the GI50 (KM-20L2) was > 100 µM (inactive), the GI50 (MDA-MB-435) was 1.72 µM (inactive) and the GI50 (DU-145) was 6.46 µM (inactive). The GI50 (KM12) was 5.86 µM (inactive), the GI50 (NCI-H23) was 3.9 µM (inactive) and the GI50 (CCRF-CEM) was 4.68 µM (inactive). For the same compound, the GI50 (RXF 393) was 6.15 µM (inactive), the GI50 (MOLT-4) was 6.41 µM (inactive) and the GI50 (HOP-18) was > 100 µM (inactive). The GI50 (786-0) was 37.6 µM (inactive), the GI50 (K562) was 3.68 µM (inactive) and the GI50 (RXF 631) was > 100 µM (inactive). The GI50 (PC-3) was 5.5 µM (inactive).
